Assay results reported in patent US20030017590A1, “PRODUCTION OF HUMAN CNS NEURONS FROM EMBRYONAL CARCINOMA CELLS USING CELL AGGREGATION METHOD” (priority 1999, published 2003).
Entries after “also recorded” stand apart in the source; their conditions may differ.

Experiments:
[1] = system: monolayer NT2 cells; test: Western blot of neuronal markers in RA-treated monolayer NT2 cultures; format: cell-based, human; settings: RA 0.1 to 10 μM for 16 days
Protocol: (§1) FIG. 5. Expression of neuronal markers in RA differentiated NT2 aggregates. NT2 cells were pre-aggregated by RA at concentration (10^−7 to 10^−5 M) for 14 days and replated onto PDL/LAM coated plates for two days. As control experiments, NT2 cells were plated at 2×10^5 cells/ml as monolayer cultures and differentiated with RA (10^−7 to 10^−5 M) for a total of 16 days. Total proteins were extracted and Western blot analysis was performed using antibodies specific against phosphorylated NF-M (NF-M-P; upper panel) and synapsin I (lower panel).
Cells were washed twice with ice-cold PBS followed by a wash with ice-cold PBS supplemented with 1 mM sodium orthovanadate (NaOV; SIGMA, St. Louis, Mo., USA). Cells were then lysed with lysis buffer (50 mM Tris.Cl at pH8, 150 mM NaCl, 1% TX, 1×aprotinin; SIGMA, St. Louis, Mo., USA, 1 mM PMSF; GIBCO, Palo Alto, Calif., USA and 1 mM NaOV) at 4° C. for 15 minutes. Lysates were collected and centrifuged to remove cell debris. Protein assays were performed with Bio-Rad Protein Assay Kit based on the Bradford dye-binding procedure (BIO-RAD, Hercules, Calif., USA). Protein (typically 10 μg) were separated by SDS-PAGE and then electro-transferred to nitrocellulose membrane (MSI, Westborough, Mass., USA). […] After three washes with TBS-Tween, immunoreactive bands were detected using ECL kit (AMERSHAM, Arlington Heights, Ill., USA). […]

[2] = system: NT2 cells; test: Indirect immunofluorescent analysis of NT2 neurons differentiated by cell aggregation; format: cell-based, human; settings: RA 5 μM for 14 days, two days after replating in RA-free medium
Protocol: NT2 cells were aggregated and differentiated by RA (5 μM) for 14 days. Two days after replating in RA-free medium, differentiated NT2 cells were fixed and stained with the antibodies specific against TH (upper panel), and phosphorylated NF-M (lower panel). Scale bar, 50 μm.
For immunofluorescent analysis, control or differentiated aggregates cultures were fixed with 4% paraformaldehyde (FLUKA, Hauppauge, N.Y., USA) in PBS. After blocking with 4% normal serum (NS; VECTOR LAB, Burlingame, Calif., USA) in PBS containing 0.4% Triton-X (TX; BOERINGER MANNEHEIM, Mannheim, Germany), and 1% bovine serum albumin (BSA; SIGMA, St. Louis, Mo., USA), aggregates were incubated overnight at 4° C. with primary antibodies diluted in antibody diluent (1% NS, 0.4% TX and 1% BSA). Incubation with secondary antibodies was performed at room temperature for at least 2 hours. Cells were visualized under fluorescence microscope (ZEISS, Jena, Germany). […]
In order to verify whether the phase-bright cells obtained following cell aggregation were neurons, immunocytochemical analysis was performed. High-molecular weight neurofilament proteins (200 kDa) were detected in the neurites of the neurons (FIG. 2). […] In addition, substance P (SP) was detected in both the cell bodies and the neurites of the neurons (FIG. 2). […]

[3] = system: NT2 aggregates; test: Western blot of neuronal markers in RA-differentiated NT2 aggregates; format: cell-based, human
Protocol: as §1
Cells were washed twice with ice-cold PBS followed by a wash with ice-cold PBS supplemented with 1 mM sodium orthovanadate (NaOV; SIGMA, St. Louis, Mo., USA). Cells were then lysed with lysis buffer (50 mM Tris.Cl at pH8, 150 mM NaCl, 1% TX, 1×aprotinin; SIGMA, St. Louis, Mo., USA, 1 mM PMSF; GIBCO, Palo Alto, Calif., USA and 1 mM NaOV) at 4° C. for 15 minutes. Lysates were collected and centrifuged to remove cell debris. Protein assays were performed with Bio-Rad Protein Assay Kit based on the Bradford dye-binding procedure (BIO-RAD, Hercules, Calif., USA). Protein (typically 10 μg) were separated by SDS-PAGE and then electro-transferred to nitrocellulose membrane (MSI, Westborough, Mass., USA). After blocking at room temperature for 1 hr using TBS-Tween containing 5% non-fat milk, membranes were incubated overnight at 4° C. with primary antibodies in TBS-Tween containing 5% non-fat milk. Membranes were then incubated with horseradish peroxidase conjugated secondary antibodies (1:2000 dilution; AMERSHAM, Arlington Heights, Ill., USA) for 1 hour at room temperature. After three washes with TBS-Tween, immunoreactive bands were detected using ECL kit (AMERSHAM, Arlington Heights, Ill., USA).
To study whether the high concentrations of RA required for inducing neuronal differentiation of NT2 cells could be lowered under the condition of cell aggregation, we exposed the NT2 aggregates to reduced concentration of RA (0.1 to 10 μM). Following treatment of NT2 aggregates with RA for 14 days, these cells were plated onto PDL/LAM coated plates in RA-free medium, and total protein samples were prepared 2 days later. As control, total protein samples were extracted from monolayer NT2 cultures treated with 16 days of RA (0.1 to 10 μM).

[4] = system: NT2 cells; settings: standard protocol for differentiation; cited from earlier work
[5] = system: NT2 cells; test: RA-induced neuronal differentiation of NT2 cell aggregates (phase contrast morphology); format: cell-based, human; settings: for number of neurons that could be prepared: NT2 aggregates
Protocol: NT2 cells were cultured as previously described (Pleasure, S. J. et al., 1992, J. Neurosci. 12:1802-1815). Briefly, cells were maintained in OptiMEMI-reduced serum medium (GIBCO, Palo Alto, Calif., USA) supplemented with 5% fetal bovine serum (FBS; GIBCO, Palo Alto, Calif., USA). When NT2 cells were differentiated by the standard protocol, NT2 cells were seeded at 2×10^6 cells per 75 cm^2 in Dulbecco's Modified Eagle's medium (high glucose formulation) (DMEM-HG; GIBCO, Palo Alto, Calif., USA) and were treated with a final concentration of 10 μM all-trans RA (SIGMA, St. Louis, Mo., USA). In the cell aggregation studies, cells were dislodged by trypsinization and were plated at 1×10^5 cells per ml into a 85-mm bacteriological grade petri dish in DMEM-HG supplemented 10% FBS. After incubation overnight at 37° C. in a 5% CO2 incubator, the aggregates were supplemented with a final concentration of 10 μM all-trans RA. The medium was replaced every two days. After 14 days of RA treatment, aggregates were plated onto tissue culture grade petri dish pre-coated with 10 μg/ml poly-D-lysine (PDL; SIGMA, St. Louis, Mo., USA), 10 μg/ml mouse laminin (LAM; GIBCO, Palo Alto, Calif., USA) and 0.1% gelatin (SIGMA, St. Louis, Mo., USA) in Dulbecco's Phosphate buffered saline (D-PBS; GIBCO, Palo Alto, Calif., USA). Following overnight incubation, aggregates were then cultured in DMEM-HG with 10% FBS supplemented with 1 μM cytosine D-arabinofuranoside (arac; SIGMA, St. Louis, Mo., USA) and 10 μM uridine (SIGMA, St. Louis, Mo., USA). After 3 days of incubation, neurons were detached by tapping gently on the side of the tissue culture plate, or by brief trypsinization, and replated on to a new pre-coated tissue culture plate. Incubation was continued in the presence of araC and uridine for another 4 days. Neurons obtained could be kept in DMEM supplemented with 10% FBS for more than 3 weeks.
To examine the effect of cell aggregation on RA-induced neuronal differentiation, NT2 cells were pre-aggregated as described above. After 14 days of RA treatment, aggregates were plated on PDL and LAM (PDL/LAM) coated plates. […] Phase bright neuron-like cells with long extended neurites continued to migrate out from the NT2 aggregates. At day 3 after replating, these cells grew on the surface of large-flattened cells (FIG. 1). […] However, neuron-like cells were subsequently overwhelmed by both undifferentiated NT2 cells and the differentiated large-flattened cells (Pleasure, S. J. et al., 1992, J. Neurosci. 12:1802-1815).
It is possible that the sustained requirement of RA for the neuronal differentiation of NT2 is indeed due to the lack of cell-cell interaction. To examine this possibility, NT2 cells were maintained as aggregates in bacteriological culture dish for 14 days and RA treatment was given only during the first few days of aggregation (1 to 5 days).

[6] = NT2 aggregates, RA 0.1 to 10 μM

Which “expression of phosphorylated NF-M” value [1] does the source give for `CC1=C(/C=C/C(C)=C/C=C/C(C)=C/C(=O)O)C(C)(C)CCC1` [RA, all-trans retinoic acid] here?
The value was “expressed phosphorylated NF-M only at higher concentrations of RA (1 or 10 μM)”.

And the “expression of neuronal specific proteins (NF200, synapsin I, substance P, GABA)” value [2]?
Its value is “expressed neuronal specific proteins”.

And the “expression of tyrosine hydroxylase (TH)” value [2]?
The value was “expressed tyrosine hydroxylase (TH)”.

What about the “expression level of phosphorylated NF-M proteins, aggregates versus monolayer” value ([3]; NT2 aggregates at 0.1 μM RA versus monolayer NT2 cells at 10 μM RA) of the same compound?
The value was “comparable expression level”.

And the “expression level of phosphorylated NF-M proteins versus RA concentration” value [3, 6]?
The value was “elevated with increased concentration of RA”.

And the “synapsin I protein expression” value [3, 6]?
The value was “High level of synapsin I protein expression was detected”.

What about the “expression of phosphorylated NF-M proteins” value ([3]; NT2 aggregates, RA 0.1 to 10 μM for 14 days, 2 days on PDL/LAM) of the same compound?
The value was “could induce the expression of phosphorylated NF-M proteins”.

What about the “time until neuron-like cells observed after RA treatment” value [4] of the same compound?
Its value is “about five weeks”.

And the “formation of neurons after brief RA treatment” value ([5]; 2 to 3 days of RA treatment (10 μM), cells maintained as aggregates for 14 days)?
Its value is “Neurons were observed”.

What about the “neurite outgrowth from NT2 aggregates” value ([5]; 14 days of RA treatment (10 μM), plated on PDL/LAM, overnight incubation without RA) of the same compound?
Its value is “Neurite outgrowth was initiated”.

What about the “number of neurons that could be prepared” value ([5]; 0.1 μM RA) of the same compound?
Its value is “almost no neurons were observed; also recorded: did not result in cells that resembled neurons”.

What about the “number of neurons that could be prepared” value ([5]; 1 μM RA) of the same compound?
The value was “only a few neurons could be observed”.

And the “time to formation of neurons” value ([5]; NT2 cells treated with RA as aggregates in bacteriological plates)?
Its value is at most 16 days.

And the “extension of neurites from NT2 cells” value ([5]; RA for only 12 days, 2 days after plating on PDL/LAM)?
The value was “extension of neurites from NT2 cells was observed”.

And the “neuritic outgrowth of RA-treated aggregates” value ([5]; cell aggregation period less than 12 days)?
The value was “did not result in observable neuritic outgrowth”.
